Experimental data as given in PubChem BioAssay AID2060622 (Molecular Pharmacology Branch, DTP, NCI, 2025).
Several values for one entry are separate records, joined by “and”; a condition that tells them apart may be missing. Identical values can stand only once.

System: 242566-281-R-J2-PDC complex spheroid viability
Experiment: Anticancer human tumor 242566-281-R-J2-PDC patient-derived pancreatic carcinoma cell line growth inhibition [CLK]
Conditions: for viability, T/C: stronger effect = lower value
Outline: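 Multi-cell-type spheroids combined patient-derived tumor cells with HUVEC endothelial cells and human mesenchymal stem cells. Paired agents were dosed in half-log steps down from about clinical Cmax, or from 10 microM where Cmax was unknown.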

[1] = curve of first compound, second compound 0.0316 µM
[2] = curve of first compound, second compound 0.1 µM
[3] = curve of first compound, second compound 0.316 µM
[4] = curve of first compound, second compound 1 µM
[5] = curve of first compound, second compound 3.16 µM
[6] = curve of first compound, second compound 10 µM
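Also: spheroids exposed to compounds for 7 days before readout.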
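For viability, T/C in this document: 100% = DMSO vehicle control wells.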

C=CC(=O)Nc1cc(Nc2nccc(-c3cn(C)c4ccccc34)n2)c(OC)cc1N(C)CCN(C)C + CNC(=O)c1ccc(Nc2nc(OC3CCCC3)c3c(-c4ccc5nc(C)oc5c4)c[nH]c3n2)c(OC)c1
IC50 [1]: > 300 nM | IC50 [2]: > 300 nM | IC50 [3]: > 300 nM | IC50 [4]: > 300 nM | IC50 [5]: 2.72 nM | IC50 [6]: 3.17 nM | viability, T/C (second compound 0.0316 µM, first compound 0.000949 µM): 83.7% | viability, T/C (second compound 0.0316 µM, first compound 0.003 µM): 97% | viability, T/C (second compound 0.0316 µM, first compound 0.00949 µM): 101% | viability, T/C (second compound 0.0316 µM, first compound 0.03 µM): 108% | viability, T/C (second compound 0.0316 µM, first compound 0.0949 µM): 110% | viability, T/C (second compound 0.0316 µM, first compound 0.3 µM): 92.8% | viability, T/C (second compound 0.1 µM, first compound 0.000949 µM): 96.1% | viability, T/C (second compound 0.1 µM, first compound 0.003 µM): 81.7% | viability, T/C (second compound 0.1 µM, first compound 0.00949 µM): 80.1% | viability, T/C (second compound 0.1 µM, first compound 0.03 µM): 99.5% | viability, T/C (second compound 0.1 µM, first compound 0.0949 µM): 95.5% | viability, T/C (second compound 0.1 µM, first compound 0.3 µM): 81.4% | viability, T/C (second compound 0.316 µM, first compound 0.000949 µM): 89.4% | viability, T/C (second compound 0.316 µM, first compound 0.003 µM): 76% | viability, T/C (second compound 0.316 µM, first compound 0.00949 µM): 72.2% | viability, T/C (second compound 0.316 µM, first compound 0.03 µM): 77.6% | viability, T/C (second compound 0.316 µM, first compound 0.0949 µM): 81.4% | viability, T/C (second compound 0.316 µM, first compound 0.3 µM): 80.2% | viability, T/C (second compound 1 µM, first compound 0.000949 µM): 69.7% | viability, T/C (second compound 1 µM, first compound 0.003 µM): 59% | viability, T/C (second compound 1 µM, first compound 0.00949 µM): 58.9% | viability, T/C (second compound 1 µM, first compound 0.03 µM): 61.8% | viability, T/C (second compound 1 µM, first compound 0.0949 µM): 63.7% | viability, T/C (second compound 1 µM, first compound 0.3 µM): 57.5% | viability, T/C (second compound 3.16 µM, first compound 0.000949 µM): 55.9% | viability, T/C (second compound 3.16 µM, first compound 0.003 µM): 50% | viability, T/C (second compound 3.16 µM, first compound 0.00949 µM): 45.7% | viability, T/C (second compound 3.16 µM, first compound 0.03 µM): 51.9% | viability, T/C (second compound 3.16 µM, first compound 0.0949 µM): 46.4% | viability, T/C (second compound 3.16 µM, first compound 0.3 µM): 48.8% | viability, T/C (second compound 10 µM, first compound 0.000949 µM): 49.1% | viability, T/C (second compound 10 µM, first compound 0.003 µM): 51.2% | viability, T/C (second compound 10 µM, first compound 0.00949 µM): 51.1% | viability, T/C (second compound 10 µM, first compound 0.03 µM): 47.7% | viability, T/C (second compound 10 µM, first compound 0.0949 µM): 43.1% | viability, T/C (second compound 10 µM, first compound 0.3 µM): 44.9%

Nc1ccccc1NC(=O)c1ccc(CNC(=O)OCc2cccnc2)cc1 + CNC(=O)c1ccc(Nc2nc(OC3CCCC3)c3c(-c4ccc5nc(C)oc5c4)c[nH]c3n2)c(OC)c1
IC50 [1]: 7700 nM | IC50 [2]: 7540 nM | IC50 [3]: 5800 nM | IC50 [4]: 2700 nM | IC50 [5]: 1670 nM | IC50 [6]: < 31.6 nM | viability, T/C (second compound 0.0316 µM, first compound 0.0316 µM): 86.9% | viability, T/C (second compound 0.0316 µM, first compound 0.1 µM): 101% | viability, T/C (second compound 0.0316 µM, first compound 0.316 µM): 101% | viability, T/C (second compound 0.0316 µM, first compound 1 µM): 149% | viability, T/C (second compound 0.0316 µM, first compound 3.16 µM): 116% | viability, T/C (second compound 0.0316 µM, first compound 10 µM): 32.2% | viability, T/C (second compound 0.1 µM, first compound 0.0316 µM): 81.1% | viability, T/C (second compound 0.1 µM, first compound 0.1 µM): 104% | viability, T/C (second compound 0.1 µM, first compound 0.316 µM): 103% | viability, T/C (second compound 0.1 µM, first compound 1 µM): 128% | viability, T/C (second compound 0.1 µM, first compound 3.16 µM): 109% | viability, T/C (second compound 0.1 µM, first compound 10 µM): 32.1% | viability, T/C (second compound 0.316 µM, first compound 0.0316 µM): 89.6% | viability, T/C (second compound 0.316 µM, first compound 0.1 µM): 78% | viability, T/C (second compound 0.316 µM, first compound 0.316 µM): 85.6% | viability, T/C (second compound 0.316 µM, first compound 1 µM): 94.7% | viability, T/C (second compound 0.316 µM, first compound 3.16 µM): 80.8% | viability, T/C (second compound 0.316 µM, first compound 10 µM): 22.2% | viability, T/C (second compound 1 µM, first compound 0.0316 µM): 75.7% | viability, T/C (second compound 1 µM, first compound 0.1 µM): 70.2% | viability, T/C (second compound 1 µM, first compound 0.316 µM): 61.8% | viability, T/C (second compound 1 µM, first compound 1 µM): 73.4% | viability, T/C (second compound 1 µM, first compound 3.16 µM): 46.8% | viability, T/C (second compound 1 µM, first compound 10 µM): 14% | viability, T/C (second compound 3.16 µM, first compound 0.0316 µM): 60.4% | viability, T/C (second compound 3.16 µM, first compound 0.1 µM): 52.9% | viability, T/C (second compound 3.16 µM, first compound 0.316 µM): 52.5% | viability, T/C (second compound 3.16 µM, first compound 1 µM): 63.9% | viability, T/C (second compound 3.16 µM, first compound 3.16 µM): 40.5% | viability, T/C (second compound 3.16 µM, first compound 10 µM): 10.3% | viability, T/C (second compound 10 µM, first compound 0.0316 µM): 50% | viability, T/C (second compound 10 µM, first compound 0.1 µM): 44.4% | viability, T/C (second compound 10 µM, first compound 0.316 µM): 48.6% | viability, T/C (second compound 10 µM, first compound 1 µM): 54% | viability, T/C (second compound 10 µM, first compound 3.16 µM): 37.6% | viability, T/C (second compound 10 µM, first compound 10 µM): 7.66%

CNC(=O)c1ccc(Nc2nc(OC3CCCC3)c3c(-c4ccc5nc(C)oc5c4)c[nH]c3n2)c(OC)c1
viability, T/C (compound 1 µM): 69.1% [middle of 12 runs] | viability, T/C (compound 3.16 µM): 61% [middle of 12 runs] | viability, T/C (compound 10 µM): 55.9% [middle of 12 runs] | IC50 (compound alone, run of 08/01/2023): > 10000 nM and 2630 nM
